Each structure is given as a SMILES string.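 Tested at 5 concentrations; 48 h exposure; 96-well plates; endpoints linearly interpolated, else capped at highest concentration. The concentration for 50% growth inhibition is given as GI50.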 Activity calls are given as the source filed them. No stated cut-off is given here; in the data, active = GI50 up to about 1.1 µM and inactive = higher.

Among the test systems are NCI-H460; HCT-15; MCF7; OVCAR-3; HCT-116; A498; KM12; UO-31; SNB-19; SK-MEL-2; LOX IMVI; Malme-3M; ACHN; TK-10; RXF 393; UACC-62; SR; K562; MDA-MB-231; 786-0.
Test in all cases: growth of human tumour cells (NCI), 48 h

For `Cc1nn(C(=O)c2ccccc2O)c2c1C(c1ccc3ccccc3c1O)SC(=N)N2` (stereo not given), the GI50 in the assay on NCI-H460 is 5.53 µM (inactive); with HCT-15, 4.26 µM; in the assay with MCF7, 2.44 µM (inactive); in the assay on OVCAR-3, 2.69 µM (inactive); in the assay on HCT-116, 1.5 µM (inactive); in the assay with A498, 6.47 µM (inactive). Further, the GI50 was 7.46 µM (inactive) in the assay on KM12; 4.2 µM (inactive) with UO-31; 8.61 µM (inactive) in the assay with SNB-19; 4.39 µM (inactive) with SK-MEL-2; 3.75 µM (inactive) in the assay with LOX IMVI; > 10 µM (inactive) with Malme-3M. The GI50 with ACHN was 3.8 µM (inactive); in the assay with TK-10, 8.75 µM (inactive); with RXF 393, 6.56 µM (inactive); in the assay with UACC-62 it was 1.77 µM (inactive); in the assay on SR, 4.53 µM (inactive); in the assay with K562 it was 3.6 µM (inactive). For the same molecule, the GI50 in the assay on MDA-MB-231 is 3.05 µM (inactive); in the assay with 786-0 it was 6.47 µM (inactive).

For `CCc1ccc(CCC(=O)O)nc1`, the GI50 in the assay with NCI-H460 was > 100 µM (inactive); in the assay with HCT-15 it was more than 100 µM; in the assay with MCF7 it was > 100 µM (inactive); with OVCAR-3, > 100 µM (inactive); in the assay with HCT-116, > 100 µM (inactive); in the assay on A498 it was > 100 µM (inactive). The GI50 in the assay with KM12, with UO-31, in the assay on SNB-19, in the assay with SK-MEL-2, with LOX IMVI and with Malme-3M was > 100 µM (inactive) each time. Besides, the GI50 with ACHN, with TK-10, in the assay with RXF 393, with UACC-62, with SR and in the assay with K562 was > 100 µM (inactive) in each case. The GI50 in the assay on MDA-MB-231 and in the assay on 786-0 was > 100 µM (inactive) each time.

For the molecule `CN(C)CCOC1(CC2CCCCC2)CCC(C(C)(C)C)CC1` (stereo not given), the GI50 with NCI-H460 was 3.67 µM (inactive); in the assay with HCT-15 it was 3.75 µM; in the assay with MCF7, 2.98 µM (inactive); in the assay on OVCAR-3, 7.53 µM (inactive); in the assay on HCT-116, 4.36 µM (inactive); with A498, 6.47 µM (inactive). In addition, the GI50 in the assay on KM12 is 4.27 µM (inactive); with UO-31, 2.69 µM (inactive); in the assay with SNB-19, 8.43 µM (inactive); in the assay on SK-MEL-2, 6.44 µM (inactive); with LOX IMVI it was 2.73 µM (inactive); in the assay on Malme-3M it was 2.83 µM (inactive). Moreover, the GI50 with ACHN is 7.57 µM (inactive); in the assay with TK-10 it was 12.8 µM (inactive); in the assay with RXF 393 it was 3.72 µM (inactive); in the assay on UACC-62, 7.8 µM (inactive); with SR, 1.69 µM (inactive); in the assay with K562, 2.04 µM (inactive). In addition, the GI50 with MDA-MB-231 is 4.18 µM (inactive); in the assay on 786-0, 2.48 µM (inactive).

`O=C(/C=C/c1ccc(O)c(O)c1)c1ccc(O)cc1O` [BUTEIN]: the GI50 was 15.2 µM (inactive) in the assay on NCI-H460; 16.3 µM in the assay on HCT-15; 3.98 µM (inactive) in the assay with MCF7; 15.4 µM (inactive) in the assay with OVCAR-3; 13 µM (inactive) in the assay with HCT-116; 17.7 µM (inactive) with A498. In addition, the GI50 with KM12 is 10.2 µM (inactive); in the assay on UO-31, 14 µM (inactive); in the assay with SNB-19, 18.5 µM (inactive); with SK-MEL-2 it was 14.9 µM (inactive); with LOX IMVI, 8.26 µM (inactive); in the assay on Malme-3M, 13.9 µM (inactive). In addition, the GI50 with ACHN was 18 µM (inactive); with TK-10, 19.4 µM (inactive); in the assay with RXF 393 it was 12.2 µM (inactive); in the assay on UACC-62 it was 16.9 µM (inactive); with SR, 7.1 µM (inactive); in the assay on K562 it was 4.27 µM (inactive). Moreover, the GI50 in the assay with MDA-MB-231 is 15.8 µM (inactive); in the assay on 786-0, 12 µM (inactive).

Values taken from ChEMBL document CHEMBL1201862, “PubChem BioAssay data set” (2004).
